Reference: US5385833A, “Pseudomonas sp. ATCC No. 49794 alcohol dehydrogenase” (The Scripps Research Institute, priority 1992, dated 1995)

Each molecule was assayed on Pseudomonas sp. strain PED alcohol dehydrogenase (assay: PED alcohol dehydrogenase enzyme assay, reduction of carbonyl substrates (relative rates)). Details: not given.
Type: biochemical

| SMILES | Relative rate |
| --- | --- |
| CC(=O)/C=C/c1ccccc1 [Compound 54] | 0 |
| CC(=O)CCC=C(C)C [Compound 23] | 7 |
| COC(=O)CC(C)=O [Compound 27] | 135 |
| C#CC(C)=O [Compound 64, 1-Butyn-3-one] | 1 |
| CCCCC(C)=O [Compound 61] | 5 |
| CC(=O)CCCCl [Compound 11, 5-chloro-2-pentanone] | 5 |
| CCCC(C)=O [Compound 60] | 6 |
| CC(=O)CCC=C(C)C [Compound 10, 6-methyl-5-hepten-2-one] | 6 |
| CCC(=O)c1ccccc1 [Compound 58] | < 1 |
| O=C(CCCCl)c1ccc(F)cc1 [Compound 16] | 0 |
| CC(=O)CCC(C)=O [Compound 28] | 9 |
| CC(=O)C(C)Cl (stereo not drawn) [Compound 65] | 11 |
| CC(C)[C@@H]1CC[C@@H](C)CC1=O [Compound 41] | 3.4 |
| CN(C)CCC(=O)c1ccccc1 [Compound 49] | 8 |
| CC(=O)C(Cl)C(C)=O [Compound 26] | 336 |
| CC(=O)C(=O)c1ccccc1 [Compound 3, 1-phenyl-1,2-propanedione] | 34 |
| O=C(c1ccccc1)C(F)(F)F [Compound 1, trifluoroacetophenone] | 7 |
| O=C(CCl)CCl [Compound 36] | 6 |
| CC(=O)C#Cc1ccccc1 [Compound 51] | < 0.1 |
| COC(=O)CC(=O)CCl [Compound 9, methyl 4-chloro-3-oxobutanoate] | 4 |
| CCC(C)=O [Compound 59] | 100 |

Same assay, conditions: Table 1; reduction, 10 mM ketone, 0.45 mM NADH, PED, change in absorbance at 340 nm; Compound 2 = 1 (2.1 U/mg enzyme)

| SMILES | Relative rate |
| --- | --- |
| O=C1CCCCc2ccccc21 [Compound 21] | 4 |
| O=C(CCCCl)c1ccccc1 [Compound 8] | 4 |
| CC(=O)c1ccco1 [Compound 19] | 0 |
| O=C(c1ccccc1)C1CC1 [Compound 7, phenyl cyclopropyl ketone] | < 1 |
| O=C(CCCCl)c1ccc(O)cc1 [Compound 15] | 0 |
| CC(=O)CCc1ccccc1 [Compound 6, 4-phenyl-2-butanone] | 6 |
| O=C(CCCCl)c1cccs1 [Compound 17] | 4 |
| CC(=O)c1ccccc1 [Compound 2, acetophenone] | 1 |
| COc1coc(C(C)=O)c1OC [Compound 20] | 0.6 |
| COC(=O)C(=O)c1ccccc1 [Compound 4, methyl benzoylformate] | 4 |
| CCCCCC(=O)CC [Compound 13, 3-octanone] | 3 |
| CCCCC(=O)c1ccco1 [Compound 12] | < 0.1 |
| O=C(CCl)c1ccc(O)c(O)c1 [Compound 14] | < 0.1 |
| O=C(CC(=O)C(F)(F)F)c1cccs1 [Compound 18] | 0 |
| O=C[C@@H]1C[C@H]1c1ccccc1 (relative stereo) [Compound 5, 1-carboxaldehyde-2-phenylcyclopropane] | 7 |

Same assay, conditions: Table 2; determined as described in Table 1 (10 mM ketone, 0.45 mM NADH, 340 nm)

| SMILES | Relative rate |
| --- | --- |
| O=C1C=CCCC1 [Compound 42] | 0 |
| CC(=O)C1CC1 [Compound 66] | 11 |
| CCOC(OCC)C(=O)c1ccccc1 [Compound 50] | < 0.1 |
| CC1=CC(=O)CCC1 [Compound 43] | 0 |
| CC(=O)C1CCc2ccccc2C1=O (stereo not drawn) [Compound 55] | 0 |
| C/C=C/C(C)=O [Compound 70] | < 0.1 |
| COC(C)=CC(C)=O [Compound 24] | 0 |
| CSC(C)C(C)=O (stereo not drawn) [Compound 67] | 5 |
| CC(=O)CC(C)=O [Compound 25] | 32 |
| CCCCCC(=O)CC [Compound 35] | 2 |
| C#CC(=O)CCl [Compound 37] | 2 |
| CCCCCC(=O)C(=O)O [Compound 30] | 0 |
| C#CC(=O)CCC(=O)OC [Compound 38, Methyl-4-oxo-5-hexynoate] | < 0.1 |
| O=C1C2CCC(C2)C1Cl (stereo not drawn) [Compound 45] | 2 |
| CC(=O)C1CC2C=CC1C2 (stereo not drawn) [Compound 46] | 0 |
| C#CC(=O)CCC [Compound 39, 1-Hexyn-3-one] | 0 |
| CC(=O)COc1ccccc1 [Compound 48] | 7 |

| SMILES | Relative rate |
| --- | --- |
| COC(OC)C(C)=O [Compound 69] | 5 |
| COC(=O)C1CCCC1=O (stereo not drawn) [Compound 31] | 22 |
| CCOC(=O)CC(=O)CC [Compound 33] | 6 |
| CC(=O)c1c[nH]c2ccccc12 [Compound 53] | 0 |
| CO/C=C/C(C)=O [Compound 71] | 0 |
| CC(=O)C(C)O (stereo not drawn) [Compound 63] | 2 |
| C=CC(=O)CCCCC [Compound 34] | 6 |
| CC(=O)CCC(=O)O [Compound 29] | 0 |
| O=C1CC2C=CC1C2 (stereo not drawn) [Compound 47] | 0 |
| CC1C(=O)CCC1=O [Compound 32] | 0 |
| CC(=O)c1ccc2c(c1)OCCO2 [Compound 52] | 0 |
| CC(=O)c1ccccn1 [Compound 57] | 1.8 |
| O=C1CCSc2ccccc21 [Compound 56] | 0 |
| CCCCCC(C)=O [Compound 62] | 5 |
| CC(=O)C(C)CO (stereo not drawn) [Compound 68] | 0 |
| C=CCCC(C)=O [Compound 22] | 8 |

Same assay, conditions: footnote b of Table 1; 10 mM ketone, 0.45 mM NADH

| SMILES | Rate of reduction corresponding to relative rate 1 [U/mg enzyme] |
| --- | --- |
| CC(=O)c1ccccc1 [Compound 2, acetophenone] | 2.1 |

Same assay, conditions: statement in words on Table 1

| SMILES | Substrate quality compared with acetophenone |
| --- | --- |
| CC(=O)CCc1ccccc1 [Compound 6, 4-phenyl-2-butanone] | as good a substrate as is acetophenone |

These molecules were tested on PED alcohol dehydrogenase (assay: Kinetics and product inhibition of PED alcohol dehydrogenase, oxidation of 2-propanol with NAD). Details: isolated PED alcohol dehydrogenase.
Type: biochemical, Pseudomonas sp. strain PED

| SMILES | Km [µM] |
| --- | --- |
| CC(C)O [Compound 2-propanol, 2-propanol] | 75 |
| NC(=O)c1ccc[n+]([C@@H]2O[C@H](COP(=O)([O-])OP(=O)(O)OC[C@H]3O[C@@H](n4cnc5c(N)ncnc54)[C@H](O)[C@@H]3O)[C@@H](O)[C@H]2O)c1 [NAD, nicotinamide adenine dinucleotide] | 525 |

Same assay, conditions: oxidation of 2-propanol

| SMILES | Product inhibition type versus 2-propanol | Product inhibition type versus NAD |
| --- | --- | --- |
| NC(=O)C1=CN([C@@H]2O[C@H](COP(=O)(O)OP(=O)(O)OC[C@H]3O[C@@H](n4cnc5c(N)ncnc54)[C@H](O)[C@@H]3O)[C@@H](O)[C@H]2O)C=CC1 [NADH, reduced nicotinamide adenine dinucleotide] | noncompetitive inhibitors | competitive inhibition |
| CC(C)=O [acetone] | noncompetitive inhibitors | noncompetitive inhibition |

Same assay, conditions: with respect to 2-propanol under saturating NAD conditions

| SMILES | specific activity [U/mg] |
| --- | --- |
| CC(C)O [Compound 2-propanol, 2-propanol] | 36 |
